pIC50: −log10 of the molar value.
Each compound was assayed against Human recombinant PDE4 (Genbank accession no NM—006203) (Homo sapiens, UniProt Q08499) (assay: PDE4 assay (SPA, cAMP cleavage)). Conditions: Example 53; PDE4 assay as in example 52; read-out: PDE4 IC50 range.
Type: biochemical
Experimental: At the end of the incubation, the cleavage of the substrate was evaluated by the binding of the AMP product to SPA beads, which generate chemoluminescence when bound to the radioactive tracer. The AMP product inhibited the binding of the radioactive tracer to the beads, and the luminescent signal was competed.

Human recombinant PDE4 (Genbank accession no NM—006203), sequence (Q08499 1-673 isoform Q08499-2): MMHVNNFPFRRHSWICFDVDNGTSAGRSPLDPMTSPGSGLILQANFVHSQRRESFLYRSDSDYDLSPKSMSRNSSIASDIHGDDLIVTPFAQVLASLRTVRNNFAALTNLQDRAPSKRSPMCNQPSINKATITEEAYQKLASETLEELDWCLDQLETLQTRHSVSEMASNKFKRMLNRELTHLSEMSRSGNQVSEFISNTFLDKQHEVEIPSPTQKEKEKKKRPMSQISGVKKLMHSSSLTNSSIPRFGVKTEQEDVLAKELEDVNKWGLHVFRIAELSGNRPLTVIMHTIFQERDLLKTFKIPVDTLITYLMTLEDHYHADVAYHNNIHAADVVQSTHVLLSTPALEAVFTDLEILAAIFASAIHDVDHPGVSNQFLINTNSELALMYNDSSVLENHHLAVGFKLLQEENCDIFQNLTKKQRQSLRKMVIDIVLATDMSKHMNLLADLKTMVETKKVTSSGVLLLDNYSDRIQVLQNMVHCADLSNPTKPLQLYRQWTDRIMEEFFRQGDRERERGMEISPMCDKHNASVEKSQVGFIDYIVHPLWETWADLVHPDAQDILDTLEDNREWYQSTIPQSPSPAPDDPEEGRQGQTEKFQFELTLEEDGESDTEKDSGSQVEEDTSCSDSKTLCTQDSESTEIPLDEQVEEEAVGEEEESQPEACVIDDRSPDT

`COc1ccc(-c2cccc(C#N)c2)n2nc(C3(CNC(=O)OC4CCCC4)CC3)nc12` [Compound 155, {1-[5-(3-Cyano-phenyl)-8-methoxyl-[1,2,4]triazolo[1,5-a]pyridin-2-yl]-cyclopropylmethyl}-carbamic acid cyclopentyl ester] and `COc1ccc(-c2cccc(C#N)c2)n2nc(C3(CNC(=O)N4CCCC4)CC3)nc12` [Compound 156, Pyrrolidine-1-carboxylic acid {1-[5-(3-cyano-phenyl)-8-methoxy-[1,2,4]triazolo[1,5-a]pyridin-2-yl]-cyclopropylmethyl}-amide] cannot be ordered by pIC50: greater than 6.30 for the first, greater than 6.30 for the second.

First: COc1ccc(C2=NNC(=O)CC2C)n2nc(C3CC3)nc12 (stereo not shown) [Compound 158, 6-(2-Cyclopropyl-8-methoxyl-[1,2,4]triazolo[1,5-a]pyridin-5-yl)-5-methyl-4,5-dihydro-2H-pyridazin-3-one]
Second: COc1ccc(-c2ccc3c(c2)CNC3=O)n2nc(C3CC3)nc12 [Compound 171, 5-(2-Cyclopropyl-8-methoxy-[1,2,4]triazolo[1,5-a]pyridin-5-yl)-2,3-dihydro-isoindol-1-one]
The pIC50 of the first is lower: 6.00 to 6.30 for the first, greater than 6.30 for the second.

`COc1ccc(-c2cncc(C#N)c2)n2nc(C3CC3)nc12` [Compound 159, 5-(2-Cyclopropyl-8-methoxy-[1,2,4]triazolo[1,5-a]pyridin-5-yl)-nicotinonitrile] and `COc1ccc(-c2cc(F)cc(C#N)c2)n2nc(C3CC3)nc12` [Compound 164, 3-(2-Cyclopropyl-8-methoxy-[1,2,4]triazolo[1,5-a]pyridin-5-yl)-5-fluoro-benzonitrile] cannot be ordered by pIC50: greater than 6.30 for the first, greater than 6.30 for the second.

`COc1ccc(-c2ccc(C#N)c(C)c2)n2nc(C3CC3)nc12` [Compound 161, 4-(2-Cyclopropyl-8-methoxyl-[1,2,4]triazolo[1,5-a]pyridin-5-yl)-2-methyl-benzonitrile] and `COc1ccc(-c2ccc(C#N)c(F)c2)n2nc(C3CC3)nc12` [Compound 165, 4-(2-Cyclopropyl-8-methoxyl-[1,2,4]-triazolo[1,5-a]pyridin-5-yl)-2-fluoro-benzonitrile] cannot be ordered by pIC50: greater than 6.30 for the first, greater than 6.30 for the second.

`COc1cc(-c2ccc(OC)c3nc(C4CC4)nn23)ccc1C#N` [Compound 166, 4-(2-Cyclopropyl-8-methoxy-[1,2,4]triazolo[1,5-a]pyridin-5-yl)-2-methoxy-benzonitrile] and `COc1cc(C#N)cc(-c2ccc(OC)c3nc(C4CC4)nn23)c1` [Compound 169, 3-(2-Cyclopropyl-8-methoxy-[1,2,4]triazolo[1,5-a]pyridin-5-yl)-5-methoxy-benzonitrile] cannot be ordered by pIC50: greater than 6.30 for the first, greater than 6.30 for the second.

`COc1ccc(-c2cc(C#N)cc(CO)c2)n2nc(C3CC3)nc12` [Compound 168, 3-(2-Cyclopropyl-8-methoxy-[1,2,4]triazolo[1,5-a]pyridin-5-yl)-5-hydroxymethyl-benzonitrile] and `CCOC(=O)C1(c2nc3c(OC)ccc(-c4cccc(C#N)c4)n3n2)CC1` [Compound 188, 1-[5-(3-Cyano-phenyl)-8-methoxy-[1,2,4]triazolo[1,5-a]pyridin-2-yl]-cyclopropanecarboxylic acid ethyl ester] cannot be ordered by pIC50: greater than 6.30 for the first, greater than 6.30 for the second.

`COc1ccc(-c2cccc3c2CCC3=O)n2nc(C3(C(=O)NCc4ccccc4)CC3)nc12` [Compound 172, 1-[8-Methoxy-5-(1-oxo-indan-4-yl)-[1,2,4]triazolo[1,5-a]pyridin-2-yl]-cyclopropanecarboxylic acid benzylamide] and `COc1ccc(-c2ccc3c(c2)CCC3=O)n2nc(C3(C(=O)NCc4ccccc4)CC3)nc12` [Compound 182, 1-[8-Methoxy-5-(1-oxo-indan-5-yl)-[1,2,4]triazolo[1,5-a]pyridin-2-yl]-cyclopropanecarboxylic acid benzylamide] cannot be ordered by pIC50: greater than 6.30 for the first, greater than 6.30 for the second.

`COc1ccc(-c2cncc(C#N)c2)n2nc(C3(C(=O)NCc4ccccc4)CC3)nc12` [Compound 173, 1-[5-(5-Cyano-pyridin-3-yl)-8-methoxy-[1,2,4]triazolo[1,5-a]pyridin-2-yl]-cyclopropanecarboxylic acid benzylamide] and `COc1ccc(-c2cccc(C#N)c2)n2nc(C3(C(=O)NCc4ccccc4)CC3)nc12` [Compound 197, 1-[5-(3-Cyano-phenyl)-8-methoxyl-[1,2,4]triazolo[1,5-a]pyridin-2-yl]-cyclopropanecarboxylic acid benzylamide] cannot be ordered by pIC50: greater than 6.30 for the first, greater than 6.30 for the second.

`COc1cc(-c2ccc(OC)c3nc(C4(C(=O)NCC5CCCCC5)CC4)nn23)ccc1C#N` [Compound 174, 1-[5-(4-Cyano-3-methoxy-phenyl)-8-methoxy-[1,2,4]triazolo[1,5-a]pyridin-2-yl]-cyclopropanecarboxylic acid cyclohexylmethyl-amide] and `COc1ccc(-c2cncc(C#N)c2)n2nc(C3(C(=O)NCC4CCCCC4)CC3)nc12` [Compound 185, 1-[5-(5-Cyano-pyridin-3-yl)-8-methoxy-[1,2,4]triazolo[1,5-a]pyridin-2-yl]-cyclopropanecarboxylic acid cyclohexylmethyl-amide] cannot be ordered by pIC50: greater than 6.30 for the first, greater than 6.30 for the second.

`COc1cc(-c2ccc(OC)c3nc(C4(C(=O)NC(C)C)CC4)nn23)ccc1C#N` [Compound 175, 1-[5-(4-Cyano-3-methoxy-phenyl)-8-methoxy-[1,2,4]triazolo[1,5-a]pyridin-2-yl]-cyclopropanecarboxylic acid isopropylamide] and `COc1ccc(-c2cccc(C#N)c2)n2nc(C3(C(=O)NC(C)C)CC3)nc12` [Compound 194, 1-[5-(3-Cyano-phenyl)-8-methoxyl-[1,2,4]triazolo[1,5-a]pyridin-2-yl]-cyclopropanecarboxylic acid isopropylamide] cannot be ordered by pIC50: greater than 6.30 for the first, greater than 6.30 for the second.

`COc1ccc(-c2cccc3c2CCC3=O)n2nc(C3(C(=O)NCC4CCCCC4)CC3)nc12` [Compound 176, 1-[8-Methoxy-5-(1-oxo-indan-4-yl)-[1,2,4]triazolo[1,5-a]pyridin-2-yl]-cyclopropanecarboxylic acid cyclohexylmethyl-amide] and `COc1ccc(-c2cccc3c2CCC3=O)n2nc(C3(C(=O)NC(C)C)CC3)nc12` [Compound 180, 1-[8-Methoxy-5-(1-oxo-indan-4-yl)-[1,2,4]triazolo[1,5-a]pyridin-2-yl]-cyclopropanecarboxylic acid isopropylamide] cannot be ordered by pIC50: greater than 6.30 for the first, greater than 6.30 for the second.

`COc1cc(-c2ccc(OC)c3nc(C4(C(=O)NCCS(C)(=O)=O)CC4)nn23)ccc1C#N` [Compound 177, 1-[5-(4-Cyano-3-methoxy-phenyl)-8-methoxy-[1,2,4]triazolo[1,5-a]pyridin-2-yl]-cyclopropanecarboxylic acid (2-methanesulfonyl-ethyl)-amide] and `COc1ccc(-c2cncc(C#N)c2)n2nc(C3(C(=O)NCCS(C)(=O)=O)CC3)nc12` [Compound 186, 1-[5-(5-Cyano-pyridin-3-yl)-8-methoxy-[1,2,4]triazolo[1,5-a]pyridin-2-yl]-cyclopropanecarboxylic acid (2-methanesulfonyl-ethyl)-amide] cannot be ordered by pIC50: greater than 6.30 for the first, greater than 6.30 for the second.

`COc1cc(-c2ccc(OC)c3nc(C4(C(=O)NCc5ccccc5)CC4)nn23)ccc1C#N` [Compound 178, 1-[5-(4-Cyano-3-methoxy-phenyl)-8-methoxy-[1,2,4]triazolo[1,5-a]pyridin-2-yl]-cyclopropanecarboxylic acid benzylamide] and `COc1ccc(-c2ccc3c(c2)COC3=O)n2nc(C3(C(=O)NCc4ccccc4)CC3)nc12` [Compound 179, 1-[8-Methoxy-5-(1-oxo-1,3-dihydro-isobenzofuran-5-yl)-[1,2,4]triazolo[1,5-a]pyridin-2-yl]-cyclopropanecarboxylic acid benzylamide] cannot be ordered by pIC50: greater than 6.30 for the first, greater than 6.30 for the second.

`COc1ccc(-c2ccc3c(c2)CCC3=O)n2nc(C3(C(=O)NC(C)C)CC3)nc12` [Compound 181, 1-[8-Methoxy-5-(1-oxo-indan-5-yl)-[1,2,4]triazolo[1,5-a]pyridin-2-yl]-cyclopropanecarboxylic acid isopropylamide] and `COc1ccc(-c2ccc3c(c2)CCC3=O)n2nc(C3(C(=O)NCCS(C)(=O)=O)CC3)nc12` [Compound 184, 1-[8-Methoxy-5-(1-oxo-indan-5-yl)-[1,2,4]triazolo[1,5-a]pyridin-2-yl]-cyclopropanecarboxylic acid (2-methanesulfonyl-ethyl)-amide] cannot be ordered by pIC50: greater than 6.30 for the first, greater than 6.30 for the second.

`COc1ccc(-c2cccc3c2CCC3=O)n2nc(C3(C(=O)NCCS(C)(=O)=O)CC3)nc12` [Compound 183, 1-[8-Methoxy-5-(1-oxo-indan-4-yl)-[1,2,4]triazolo[1,5-a]pyridin-2-yl]-cyclopropanecarboxylic acid (2-methanesulfonyl-ethyl)-amide] and `COc1ccc(-c2cccc(C#N)c2)n2nc(C3(C(=O)NCCS(N)(=O)=O)CC3)nc12` [Compound 198, 1-[5-(3-Cyano-phenyl)-8-methoxyl-[1,2,4]triazolo[1,5-a]pyridin-2-yl]-cyclopropanecarboxylic acid (2-sulfamoyl-ethyl)-amide] cannot be ordered by pIC50: greater than 6.30 for the first, greater than 6.30 for the second.

Compared with `CCOC(=O)C1(c2nc3c(OC)ccc(-c4cccc(C(C)=O)c4)n3n2)CC1` [Compound 190, 1-[5-(3-Acetyl-phenyl)-8-methoxy-[1,2,4]triazolo[1,5-a]pyridin-2-yl]-cyclopropanecarboxylic acid ethyl ester], `COc1ccc(-c2cccc(C(C)=O)c2)n2nc(C3(C(=O)O)CC3)nc12` [Compound 193, 1-[5-(3-Acetyl-phenyl)-8-methoxyl-[1,2,4]triazolo[1,5-a]pyridin-2-yl]-cyclopropanecarboxylic acid] is lower in pIC50: greater than 6.30 for the first, less than 6.00 for the second. The first is the more potent here.

First: COc1ccc(-c2cccc(C#N)c2)n2nc(C3(C(=O)NCc4cccnc4)CC3)nc12 [Compound 195, 1-[5-(3-Cyano-phenyl)-8-methoxy-[1,2,4]triazolo[1,5-a]pyridin-2-yl]-cyclopropanecarboxylic acid (pyridin-3-ylmethyl)-amide]
Second: COc1ccc(-c2cccc(C#N)c2)n2nc(C3(C(=O)N4CCOCC4)CC3)nc12 [Compound 196, 3-{8-Methoxy-2-[1-(morpholine-4-carbonyl)-cyclopropyl]-[1,2,4]triazolo-[1,5-a]pyridin-5-yl}-benzonitrile]
The pIC50 of the first is higher: greater than 6.30 for the first, 6.00 to 6.30 for the second.

— patent US8952162B2, “Triazolopyridines as phosphodiesterase inhibitors for treatment of dermal diseases” (Leo Pharma A/S, priority 2008, dated 2015)
